Source: paper PMC8611796, “Defining natural factors that stimulate and inhibit cellulose:xyloglucan hetero‐transglucosylation” (The Plant Journal, 2021)

How the values were obtained:
Assay type in all cases: biochemical
[1] = biological target: T1, EfHTG (Equisetum fluviatile hetero-trans-beta-glucanase) (Equisetum fluviatile, UniProt A0A0K2WA62); test: radiochemical transglucosylase assay (XET, MXE, CXE); conditions: acceptor substrate; labelled compound; xyloglucan, MLG or cellulose donor; pH 5.5
T1 construct: gene HTG; secreted by Pichia pastoris SMD1168H; culture filtrate used; made as in Simmons et al. 2015
T1 sequence (A0A0K2WA62 22-280): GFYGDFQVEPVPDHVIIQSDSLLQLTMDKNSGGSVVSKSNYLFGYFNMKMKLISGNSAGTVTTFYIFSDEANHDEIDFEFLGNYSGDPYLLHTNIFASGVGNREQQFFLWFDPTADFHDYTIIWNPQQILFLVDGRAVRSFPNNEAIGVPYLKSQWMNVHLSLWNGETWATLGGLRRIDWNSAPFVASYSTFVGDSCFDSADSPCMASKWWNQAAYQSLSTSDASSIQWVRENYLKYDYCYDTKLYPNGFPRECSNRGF

[2] = biological target: T1, EfHTG (Equisetum fluviatile hetero-trans-beta-glucanase); test: radiochemical CXE and MXE assay, [3H]XXXGol incorporation; conditions: cellulose or MLG donor, succinate pH 5.5, 20 C, 24 h
[3] = biological target: T1, EfHTG (Equisetum fluviatile hetero-trans-beta-glucanase); test: radiochemical CXE assay, [3H]XXXGol incorporation; conditions: read-out: % inhibition at 0.3 mM

**Q.** Which “radiochemical transglucosylase assay (XET, MXE, CXE)” value [1] does the source give for OC[C@@H](O)[C@@H](O[C@@H]1O[C@H](CO[C@H]2OC[C@@H](O)[C@H](O)[C@H]2O)[C@@H](O[C@@H]2O[C@H](CO[C@H]3OC[C@@H](O)[C@H](O)[C@H]3O)[C@@H](O[C@@H]3O[C@H](CO[C@H]4OC[C@@H](O)[C@H](O)[C@H]4O)[C@@H](O)[C@H](O)[C@H]3O)[C@H](O)[C@H]2O)[C@H](O)[C@H]1O)[C@H](O)[C@@H](O)CO [[3H]XXXGol] here?
**A.** The value was “albeit at lower rates than onto the oligosaccharide [^3H]XXXGol”.

**Q.** With OC[C@H]1O[C@@H](O[C@H]2[C@H](O)[C@@H](O)[C@H](O[C@H]3[C@H](O)[C@@H](O)[C@H](O[C@H]4[C@H](O)[C@@H](O)[C@H](O[C@H]5[C@H](O)[C@@H](O)C(O)O[C@@H]5CO)O[C@@H]4CO)O[C@@H]3CO)O[C@@H]2CO)[C@H](O)[C@@H](O)[C@@H]1O (stereo partly shown) [cellopentaose] as the compound, how does the “% inhibition” value ([2]; [3H]XXXGol acceptor) read?
**A.** The value was “We found that cello‐oligosaccharides (C2–C6) are efficient inhibitors of Equisetum HTG”.

**Q.** With OC[C@H]1O[C@@H](O[C@H]2[C@H](O)[C@@H](O)[C@H](O[C@H]3[C@H](O)[C@@H](O)[C@H](O[C@H]4[C@H](O)[C@@H](O)C(O)O[C@@H]4CO)O[C@@H]3CO)O[C@@H]2CO)[C@H](O)[C@@H](O)[C@@H]1O (stereo partly shown) [cellotetraose] as the compound, how does the “% inhibition” value ([2]; [3H]XXXGol acceptor) read?
**A.** The value was “We found that cello‐oligosaccharides (C2–C6) are efficient inhibitors of Equisetum HTG”.

**Q.** For OC[C@H]1O[C@@H](O[C@H]2[C@H](O)[C@@H](O)[C@H](O[C@H]3[C@H](O)[C@@H](O)[C@H](O[C@H]4[C@H](O)[C@@H](O)[C@H](O[C@H]5[C@H](O)[C@@H](O)[C@H](O[C@H]6[C@H](O)[C@@H](O)C(O)O[C@@H]6CO)O[C@@H]5CO)O[C@@H]4CO)O[C@@H]3CO)O[C@@H]2CO)[C@H](O)[C@@H](O)[C@@H]1O (stereo partly shown) [cellohexaose], which “% inhibition” value ([2]; [3H]XXXGol acceptor) is on record?
**A.** The value was “We found that cello‐oligosaccharides (C2–C6) are efficient inhibitors of Equisetum HTG”.

**Q.** For OC[C@H]1O[C@@H](O[C@H]2[C@H](O)[C@@H](O)C(O)O[C@@H]2CO)[C@H](O)[C@@H](O)[C@@H]1O (stereo partly shown) [cellobiose], which “% inhibition” value ([2]; 0.01-80 mM inhibitor, [3H]XXXGol or [3H]XyG acceptor) is on record?
**A.** Its value is “Cellobiose inhibited EfHTG’s CXE activity equally whether [^3H]XXXGol or polymeric [^3H]XyG was the acceptor”.

**Q.** With CCCCN1C[C@H](O)[C@@H](O)[C@H](O)[C@H]1CO [N-butyldeoxynojirimycin] as the compound, how does the inhibition at 300 µM [3] read?
**A.** Its inhibition at 300 µM is about 50%.

**Q.** OC[C@H]1O[C@@H](O[C@H]2[C@H](O)[C@@H](O)[C@H](O[C@H]3[C@H](O)[C@@H](O)C(O)O[C@@H]3CO)O[C@@H]2CO)[C@H](O)[C@@H](O)[C@@H]1O (stereo partly shown) [cellotriose] was tested. Which “% inhibition” value ([2]; [3H]XXXGol acceptor) did it give?
**A.** The value was “We found that cello‐oligosaccharides (C2–C6) are efficient inhibitors of Equisetum HTG”.
